Test results as given in patent US20190112580A1, “METHODS FOR TREATING CO[…] AND RELATED CULTURED CELLS” (priority 2017, published 2019).
pIC50: −log10 of the molar value.

Assays:
[1] = system: satellite cell-derived myoblasts
Protocol: Myoblasts were grown in the high-serum medium until reaching a 60-70% confluence by visual inspection in 12-well plate culture dishes.
In a first set of wells, the myoblast cell preparations were placed in a high-serum medium until about 70% confluence was reached. […] These myoblast cell preparations were then switched to a low-serum medium (as described in Example 1) for four days to promote fusion and myotube formation.
In a second set of wells, the myoblast cell preparations were placed in a high-serum medium until about 70% confluence was reached. Then, the myoblast cell preparations were exposed to 5 μM of 5-azacytidine in the high-serum medium for 6 hours. These myoblast cell preparations were finally switched to a low-serum medium (as described in Example 1) for 4 days to promote fusion and myotube formation.
In a third set of wells, the myoblast cell preparations were placed in a high-serum medium until about 70% confluence was reached. These myoblast cell preparations were then exposed to 5 μM of 5-azacytidine in the high-serum medium for 24 hours. These myoblast cell preparations were finally switched to a low-serum medium (as described in Example 1) for 4 days to promote fusion and myotube formation.
In a fourth set of wells, the myoblast cell preparations were placed in a high-serum medium until about 70% confluence was reached.
In a fifth set of wells, the myoblast cell preparations were placed in a high-serum medium until about 70% confluence was reached. […] These same myoblast cell preparations were finally switched to a low-serum medium for 4 days to promote fusion and myotube formation.
FIG. 5, from left to right, depicts 5 columns with 5 different assays on myotube preparations differentiated from the myoblast cell preparations in the 12-well dishes. […] The second column reflects myotubes differentiated from a myoblast cell preparation from the second set of wells, which was exposed to 5 μM of 5-AZA in high serum medium for 6 hours. The third column reflects myotubes differentiated from a myoblast cell preparation from the third set of wells, which was exposed to 5 μM of 5-AZA in high serum medium for 24 hours. […] The immunostainings on the top row of FIG. 5 identifies lipid membranes (green color, WGA), nuclei (blue color, DAPI) and myotubes (red color, ACTA2). The gray-scale panels (middle row) show staining for nuclei only (DAPI). The gray-scale panels in the bottom row show staining for muscle fibers only (ACTA2).
Briefly, satellite cells were isolated from muscle biopsies obtained from TD children during surgical procedures, sorted using FACS, plated in gelatin coated dishes, and grown into proliferation medium in 12-well plates.

Aurora C kinase = Aurora C kinase (Homo sapiens, UniProt Q9UQB9); details: cited from earlier work
Sequence of Aurora C kinase (Q9UQB9 whole entry): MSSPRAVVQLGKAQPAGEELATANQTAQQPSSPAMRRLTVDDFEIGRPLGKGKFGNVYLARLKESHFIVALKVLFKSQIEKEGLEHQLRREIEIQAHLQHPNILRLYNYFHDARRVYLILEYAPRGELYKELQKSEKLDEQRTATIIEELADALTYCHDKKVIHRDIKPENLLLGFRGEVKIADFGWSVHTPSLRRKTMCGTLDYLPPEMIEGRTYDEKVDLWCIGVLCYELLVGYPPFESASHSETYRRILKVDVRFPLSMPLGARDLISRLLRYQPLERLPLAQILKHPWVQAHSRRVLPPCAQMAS

C2C12 myoblasts = details: mouse-derived C2C12 muscle cell lines; cited from earlier work
porcine satellite cells = details: 10 μM for 48 hours (Fan et al.); cited from earlier work

SMILES | myoblast fusion and myotube formation ([1]; CP and TD myoblasts, FIG. 5 and FIG. 6, 5 μM) | cell death and polyploidy (nuclei) ([1]; CP myoblasts, FIG. 5, 5 μM) | morphological changes to the membranes of the cells (WGA staining) ([1]; CP myoblasts, FIG. 5, 5 μM, 3 days) | morphological changes to ACTA2-negative cells and nuclei ([1]; TD myoblasts, FIG. 6, 5 μM) | cell death over time ([1]; myoblasts) | de-differentiation of myoblasts ([1]; myoblasts) | pIC50 (Aurora C kinase) | muscle-specific gene expression, myogenesis and myotube formation (C2C12 myoblasts) | cell viability (porcine satellite cells) | myogenic response (porcine satellite cells)
c1nc2nc(Nc3ccc(N4CCOCC4)cc3)nc(NC3CCCCC3)c2[nH]1 [Reversine, 2-(4-morpholinoanilino)-6-cyclohexylaminopurine] | shown to promote myoblast fusion and myotube formation | lower in number and suffer from polyploidy | causes morphological changes to the membranes of the cells | led to significant morphological changes to ACTA2-negative cells and nuclei in general | over time also leads to cell death | causes myoblasts to de-differentiate | 7.70 |  |  | 
Nc1ncn([C@H]2C[C@H](O)[C@@H](CO)O2)c(=O)n1 [decitabine, 5-aza-2′-deoxycytidine] |  |  |  |  |  |  |  | promoted expression of muscle-specific genes, enhanced myogenesis and myotube formation | no change in cell viability | positive myogenic response
